Reference: patent publication US20150087627A1, “COMBINATION OF KINASE INHIBITORS AND USES THEREOF” (Intellikine LLC, priority 2011, published 2015)

Columns and labels:
Format in all cases: biochemical
[1] = target: T1, PI3K γ (p110γ) (Homo sapiens, UniProt P48736); test: PI 3-Kinase (human) HTRF assay, PI3K γ; details: read-out: PI3K γ IC50
T1 construct: purchased Upstate / Millipore Corporation

[2] = target: T2, PI3K δ (Homo sapiens, UniProt O00329); test: PI 3-Kinase (human) HTRF assay, PI3K δ; details: read-out: PI3K δ IC50
T2 construct: purchased Upstate / Millipore Corporation
T2 sequence (O00329 whole entry): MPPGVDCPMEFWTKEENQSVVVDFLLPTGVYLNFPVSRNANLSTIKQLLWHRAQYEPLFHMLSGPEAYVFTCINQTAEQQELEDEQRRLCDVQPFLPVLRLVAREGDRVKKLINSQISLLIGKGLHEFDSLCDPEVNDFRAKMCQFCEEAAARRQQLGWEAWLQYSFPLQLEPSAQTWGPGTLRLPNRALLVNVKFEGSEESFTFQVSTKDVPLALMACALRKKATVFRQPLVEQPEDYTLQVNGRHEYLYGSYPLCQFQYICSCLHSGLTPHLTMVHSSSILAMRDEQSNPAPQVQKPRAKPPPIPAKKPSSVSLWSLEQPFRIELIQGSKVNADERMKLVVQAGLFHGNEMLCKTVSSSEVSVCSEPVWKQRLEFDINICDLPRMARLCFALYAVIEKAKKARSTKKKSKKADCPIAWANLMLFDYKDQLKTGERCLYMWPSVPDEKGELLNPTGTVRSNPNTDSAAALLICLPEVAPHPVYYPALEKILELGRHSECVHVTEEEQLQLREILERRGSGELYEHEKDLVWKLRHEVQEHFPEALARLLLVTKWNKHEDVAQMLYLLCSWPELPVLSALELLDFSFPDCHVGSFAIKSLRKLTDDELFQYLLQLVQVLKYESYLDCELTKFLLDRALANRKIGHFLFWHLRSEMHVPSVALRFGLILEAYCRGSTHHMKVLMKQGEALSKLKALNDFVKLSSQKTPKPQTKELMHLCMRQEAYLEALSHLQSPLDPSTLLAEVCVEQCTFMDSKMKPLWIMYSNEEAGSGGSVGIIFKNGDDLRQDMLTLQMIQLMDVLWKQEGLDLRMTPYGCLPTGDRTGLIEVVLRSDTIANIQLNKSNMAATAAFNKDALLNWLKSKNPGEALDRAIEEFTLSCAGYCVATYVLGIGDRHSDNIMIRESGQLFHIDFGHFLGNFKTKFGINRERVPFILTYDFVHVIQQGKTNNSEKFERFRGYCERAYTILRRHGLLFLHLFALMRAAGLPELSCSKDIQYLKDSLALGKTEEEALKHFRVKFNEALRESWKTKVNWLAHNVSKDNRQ
T2 sequence (P27986 whole entry partner): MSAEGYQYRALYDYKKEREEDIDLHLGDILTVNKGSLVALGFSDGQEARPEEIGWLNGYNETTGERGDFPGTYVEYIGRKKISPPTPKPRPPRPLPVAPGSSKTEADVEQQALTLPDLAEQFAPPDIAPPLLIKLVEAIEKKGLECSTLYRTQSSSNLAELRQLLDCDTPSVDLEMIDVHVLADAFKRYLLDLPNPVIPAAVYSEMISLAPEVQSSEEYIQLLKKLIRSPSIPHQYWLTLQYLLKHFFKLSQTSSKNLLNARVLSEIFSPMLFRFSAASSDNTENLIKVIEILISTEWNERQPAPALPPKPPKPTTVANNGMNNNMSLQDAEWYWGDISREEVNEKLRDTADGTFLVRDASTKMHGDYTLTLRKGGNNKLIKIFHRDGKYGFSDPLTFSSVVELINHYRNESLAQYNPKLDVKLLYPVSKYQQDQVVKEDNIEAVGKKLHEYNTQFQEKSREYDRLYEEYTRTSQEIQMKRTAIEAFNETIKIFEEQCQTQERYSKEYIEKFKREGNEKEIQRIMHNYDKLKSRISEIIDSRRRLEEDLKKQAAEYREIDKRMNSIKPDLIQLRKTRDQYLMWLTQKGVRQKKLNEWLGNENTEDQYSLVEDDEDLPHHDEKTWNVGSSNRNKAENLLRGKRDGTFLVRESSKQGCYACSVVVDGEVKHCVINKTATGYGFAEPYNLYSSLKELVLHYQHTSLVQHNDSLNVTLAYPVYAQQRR

[3] = target: T3, PI3K α (p110α/p85α) (Homo sapiens, UniProt P42336); test: PI 3-Kinase (human) HTRF assay, PI3K α; details: read-out: PI3K α IC50
T3 construct: purchased Upstate / Millipore Corporation
T3 sequence (P42336 whole entry): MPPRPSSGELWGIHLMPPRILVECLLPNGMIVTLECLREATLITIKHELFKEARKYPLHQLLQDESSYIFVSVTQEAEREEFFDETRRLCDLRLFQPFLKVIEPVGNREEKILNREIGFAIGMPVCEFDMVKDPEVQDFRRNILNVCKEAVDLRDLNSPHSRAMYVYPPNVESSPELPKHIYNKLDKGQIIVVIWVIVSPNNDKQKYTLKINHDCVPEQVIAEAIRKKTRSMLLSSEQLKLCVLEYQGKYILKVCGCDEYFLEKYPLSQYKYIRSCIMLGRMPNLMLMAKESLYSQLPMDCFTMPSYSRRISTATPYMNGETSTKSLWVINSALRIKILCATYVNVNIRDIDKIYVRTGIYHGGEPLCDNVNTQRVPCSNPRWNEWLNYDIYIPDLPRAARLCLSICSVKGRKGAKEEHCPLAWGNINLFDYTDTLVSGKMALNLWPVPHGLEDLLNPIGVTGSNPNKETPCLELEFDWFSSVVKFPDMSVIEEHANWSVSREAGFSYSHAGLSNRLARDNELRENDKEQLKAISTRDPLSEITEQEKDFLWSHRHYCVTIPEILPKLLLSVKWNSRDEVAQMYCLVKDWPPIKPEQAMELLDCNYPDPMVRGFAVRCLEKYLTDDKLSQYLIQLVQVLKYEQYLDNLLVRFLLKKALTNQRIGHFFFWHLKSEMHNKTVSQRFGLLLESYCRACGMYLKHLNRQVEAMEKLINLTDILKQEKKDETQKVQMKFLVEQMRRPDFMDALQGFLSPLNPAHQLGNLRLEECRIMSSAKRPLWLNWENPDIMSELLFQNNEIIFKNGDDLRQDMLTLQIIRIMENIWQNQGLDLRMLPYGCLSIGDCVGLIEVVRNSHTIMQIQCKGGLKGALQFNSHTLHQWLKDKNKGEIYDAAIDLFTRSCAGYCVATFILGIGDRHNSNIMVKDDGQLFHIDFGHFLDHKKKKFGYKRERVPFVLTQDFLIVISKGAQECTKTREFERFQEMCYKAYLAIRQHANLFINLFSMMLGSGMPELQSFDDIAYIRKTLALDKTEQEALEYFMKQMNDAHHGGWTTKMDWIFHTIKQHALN
T3 sequence (P27986 whole entry partner): as the sequence (P27986 whole entry partner) above

[4] = target: T4, PI3K β (p110β/p85α) (Homo sapiens, UniProt P42338); test: PI 3-Kinase (human) HTRF assay, PI3K β; details: read-out: PI3K β IC50
T4 construct: purchased Upstate / Millipore Corporation
T4 sequence (P42338 whole entry): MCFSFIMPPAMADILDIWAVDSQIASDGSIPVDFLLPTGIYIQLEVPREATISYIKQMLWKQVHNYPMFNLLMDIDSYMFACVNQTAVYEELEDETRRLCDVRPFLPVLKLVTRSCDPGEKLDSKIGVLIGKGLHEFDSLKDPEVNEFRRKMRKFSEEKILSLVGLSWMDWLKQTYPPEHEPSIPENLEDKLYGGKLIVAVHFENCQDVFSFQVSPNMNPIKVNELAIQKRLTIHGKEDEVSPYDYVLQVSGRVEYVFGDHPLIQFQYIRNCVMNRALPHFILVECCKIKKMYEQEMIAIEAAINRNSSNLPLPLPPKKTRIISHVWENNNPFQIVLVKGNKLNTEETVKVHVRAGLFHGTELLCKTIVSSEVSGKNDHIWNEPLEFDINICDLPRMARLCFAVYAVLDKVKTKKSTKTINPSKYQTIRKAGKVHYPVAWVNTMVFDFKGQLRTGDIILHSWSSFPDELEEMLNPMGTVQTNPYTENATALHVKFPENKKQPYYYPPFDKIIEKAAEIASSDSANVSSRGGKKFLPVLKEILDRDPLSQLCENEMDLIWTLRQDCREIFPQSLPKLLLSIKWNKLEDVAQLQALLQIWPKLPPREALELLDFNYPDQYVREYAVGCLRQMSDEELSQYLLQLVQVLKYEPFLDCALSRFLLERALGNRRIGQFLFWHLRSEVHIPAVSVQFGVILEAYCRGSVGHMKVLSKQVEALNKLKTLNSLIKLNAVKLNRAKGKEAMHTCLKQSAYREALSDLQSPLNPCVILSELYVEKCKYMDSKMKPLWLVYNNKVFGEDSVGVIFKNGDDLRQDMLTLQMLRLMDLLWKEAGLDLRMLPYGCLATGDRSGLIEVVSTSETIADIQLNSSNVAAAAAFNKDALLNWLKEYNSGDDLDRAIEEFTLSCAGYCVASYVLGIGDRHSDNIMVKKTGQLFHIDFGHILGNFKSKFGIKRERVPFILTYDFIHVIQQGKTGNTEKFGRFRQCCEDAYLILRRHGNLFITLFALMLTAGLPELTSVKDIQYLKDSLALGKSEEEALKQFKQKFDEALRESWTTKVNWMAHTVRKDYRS
T4 sequence (P27986 whole entry partner): as the sequence (P27986 whole entry partner) above

T1 sequence (P48736 whole entry): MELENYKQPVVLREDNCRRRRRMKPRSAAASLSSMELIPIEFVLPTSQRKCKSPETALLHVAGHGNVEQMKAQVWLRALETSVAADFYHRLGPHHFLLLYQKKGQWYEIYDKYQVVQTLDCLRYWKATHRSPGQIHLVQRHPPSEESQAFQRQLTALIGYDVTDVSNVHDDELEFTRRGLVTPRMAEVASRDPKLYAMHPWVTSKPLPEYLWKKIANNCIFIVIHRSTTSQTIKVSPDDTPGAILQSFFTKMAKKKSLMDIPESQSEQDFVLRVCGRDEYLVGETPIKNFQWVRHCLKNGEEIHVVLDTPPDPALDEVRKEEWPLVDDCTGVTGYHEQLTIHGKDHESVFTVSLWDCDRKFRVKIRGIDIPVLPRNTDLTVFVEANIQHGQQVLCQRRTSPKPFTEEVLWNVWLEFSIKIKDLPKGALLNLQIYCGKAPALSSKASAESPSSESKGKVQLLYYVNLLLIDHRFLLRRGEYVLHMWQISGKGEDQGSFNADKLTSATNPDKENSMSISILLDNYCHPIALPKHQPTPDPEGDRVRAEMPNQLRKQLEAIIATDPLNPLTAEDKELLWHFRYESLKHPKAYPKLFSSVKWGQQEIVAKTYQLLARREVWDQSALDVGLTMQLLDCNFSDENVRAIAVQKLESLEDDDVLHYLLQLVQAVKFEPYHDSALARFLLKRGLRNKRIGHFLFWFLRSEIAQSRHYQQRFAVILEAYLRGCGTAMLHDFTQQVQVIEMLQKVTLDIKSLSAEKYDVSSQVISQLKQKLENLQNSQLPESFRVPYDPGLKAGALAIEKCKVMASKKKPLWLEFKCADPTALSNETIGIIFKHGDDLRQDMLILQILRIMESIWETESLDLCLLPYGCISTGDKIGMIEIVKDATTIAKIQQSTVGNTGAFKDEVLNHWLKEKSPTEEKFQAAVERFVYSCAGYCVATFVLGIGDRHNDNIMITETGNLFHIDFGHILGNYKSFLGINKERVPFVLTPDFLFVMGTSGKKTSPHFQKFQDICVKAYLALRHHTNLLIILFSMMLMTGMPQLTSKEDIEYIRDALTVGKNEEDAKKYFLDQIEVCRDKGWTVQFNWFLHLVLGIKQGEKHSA

| IC50 [1] | IC50 [2] | IC50 [3] | IC50 [4] | SMILES |
| --- | --- | --- | --- | --- |
| < 0.1 µM | < 0.1 µM | < 0.1 µM | < 10 µM | CC(=O)N1CCC(Nc2cnc3ccc(-c4ccc5oc(N)nc5c4)cc3n2)CC1 [Compound 82] |
| < 0.1 µM | < 0.1 µM | < 0.1 µM | < 10 µM | Nc1nc2cc(-c3ccc4ncc(C(=O)NC5CCOCC5)n4c3)ccc2o1 [Compound 83] |
| < 0.1 µM | < 1 µM | < 0.1 µM | < 0.1 µM | CC(C)N1CCN(c2cnc3ccc(-c4ccc5oc(N)nc5c4)cc3n2)CC1 [Compound 84] |
| < 0.1 µM | < 0.1 µM | < 0.1 µM | < 0.1 µM | CC(=O)N1CCN(c2cnc3ccc(-c4ccc5oc(N)nc5c4)cc3n2)CC1 [Compound 85] |
| < 0.1 µM | < 0.1 µM | < 0.1 µM | < 1 µM | CS(=O)(=O)N1CCC(Nc2ncnc3ccc(-c4ccc5oc(N)nc5c4)cc23)CC1 [Compound 87] |
| < 1 µM | < 10 µM | < 0.1 µM | < 0.1 µM | Nc1nc2cc(-c3ccc4ncc(N5CCNCC5)nc4c3)ccc2o1 [Compound 88] |
| < 0.1 µM | < 0.1 µM | < 0.1 µM | < 10 µM | Nc1nc2cc(-c3ccc4ncnc(NC5CCN(C(=O)C6CC6)CC5)c4c3)ccc2o1 [Compound 89] |
| < 1 µM | < 10 µM | < 0.1 µM | < 1 µM | CS(=O)(=O)CCN1CCN(c2cnc3ccc(-c4ccc5oc(N)nc5c4)cc3n2)CC1 [Compound 90] |
| > 10 µM | > 10 µM | > 10 µM | > 10 µM | Cc1nc2ccc(-c3ccc4oc(N)nc4c3)cn2c1C(=O)N1CCN(C)CC1 [Compound 91] |
| < 0.1 µM | < 0.1 µM | < 0.1 µM | < 10 µM | CS(=O)(=O)N1CCC(Nc2cnc3ccc(-c4ccc5oc(N)nc5c4)cc3n2)CC1 [Compound 95] |
| < 0.1 µM | < 1 µM | < 0.1 µM | < 10 µM | Nc1nc2cc(-c3ccc4ncc(NC5CCOCC5)nc4c3)ccc2o1 [Compound 96] |
| > 10 µM | > 10 µM | < 10 µM | > 10 µM | Nc1nc2cc(-c3ccc4ncc(C(=O)N5CCOCC5)cc4c3)ccc2o1 [Compound 97] |
| < 0.1 µM | > 10 µM | < 0.1 µM | > 10 µM | Nc1nc2cc(-c3ccc4ncc(N5CCS(=O)(=O)CC5)nc4c3)ccc2o1 [Compound 98] |
| < 1 µM | < 1 µM | < 0.1 µM | < 10 µM | Nc1nc2cc(-c3ccc4ncc(N5CCC(O)CC5)nc4c3)ccc2o1 [Compound 99] |
| < 1 µM | < 10 µM | < 0.1 µM | < 0.1 µM | Nc1nc2cc(-c3ccc4ncc(N5CCN(CCO)CC5)nc4c3)ccc2o1 [Compound 100] |
| < 0.1 µM | < 1 µM | < 0.1 µM | < 1 µM | CC(C)(C#N)c1ccc(Nc2ncnc3ccc(-c4ccc5oc(N)nc5c4)cc23)cc1 [Compound 102] |
| > 10 µM | > 10 µM | > 10 µM | > 10 µM | CN1CCN(S(=O)(=O)c2cnc3ccc(-c4ccc5oc(N)nc5c4)cn23)CC1 [Compound 110] |
| > 10 µM | > 10 µM | < 0.1 µM | < 10 µM | Nc1nc2cc(-c3ccc4ncc(C(=O)N5CCNCC5)n4c3)ccc2o1 [Compound 111] |
| < 1 µM | > 10 µM | < 0.1 µM | < 1 µM | Nc1nc2ccc(-c3ccc4ncc(N5CCOCC5)nc4c3)cc2o1 [Compound 117] |
| < 10 µM | > 10 µM | < 1 µM | > 10 µM | C[C@@H]1CN(c2cnc3ccc(-c4ccc5oc(N)nc5c4)cc3n2)C[C@H](C)O1 [Compound 132] |
| < 10 µM | > 10 µM | < 1 µM | < 1 µM | CN1CCCN(c2cnc3ccc(-c4ccc5oc(N)nc5c4)cc3n2)CC1 [Compound 136] |
| > 10 µM | > 10 µM | < 10 µM | > 10 µM | CC1CN(C(=O)c2cnc3ccc(-c4ccc5oc(N)nc5c4)cn23)CC(C)N1 (centres unmarked) [Compound 142] |
| > 10 µM | > 10 µM | < 1 µM | > 10 µM | Nc1nc2cc(-c3ccc4ncc(-c5ccnc(N6CCOCC6)c5)nc4c3)ccc2o1 [Compound 150] |
| < 1 µM | < 10 µM | < 0.1 µM | < 0.1 µM | CCN1CCN(c2cnc3ccc(-c4ccc5oc(N)nc5c4)cc3n2)CC1 [Compound 152] |

The remaining lines, values behind:

| SMILES | IC50 [1] | IC50 [2] | IC50 [3] | IC50 [4] |
| --- | --- | --- | --- | --- |
| CN1CCC(Nc2cnc3ccc(-c4ccc5oc(N)nc5c4)cc3n2)CC1 [Compound 81] | < 1 µM | < 0.1 µM | < 0.1 µM | < 1 µM |
| CS(=O)(=O)N1CCN(c2cnc3ccc(-c4ccc5oc(N)nc5c4)cc3n2)CC1 [Compound 86] | < 0.1 µM | < 1 µM | < 0.1 µM | < 1 µM |
| Cc1nc2ccc(-c3ccc4oc(N)nc4c3)cn2c1C(=O)N1CCOCC1 [Compound 92] | > 10 µM | > 10 µM | > 10 µM | > 10 µM |
| CC(C)N1CCC(Nc2ncnc3ccc(-c4ccc5oc(N)nc5c4)cc23)CC1 [Compound 101] | < 10 µM | < 1 µM | < 0.1 µM | < 10 µM |
| CN1CCN(C(=O)c2cnc3ccc(-c4ccc5oc(N)nc5c4)nn23)CC1 [Compound 104] | < 10 µM | > 10 µM | < 10 µM | > 10 µM |
| Nc1nc2cc(-c3ccc4ncc(C(=O)N5CCOCC5)n4n3)ccc2o1 [Compound 105] | < 1 µM | > 10 µM | < 1 µM | < 10 µM |
| C[C@@H]1CN(C(=O)c2cnc3ccc(-c4ccc5oc(N)nc5c4)cn23)C[C@H](C)O1 [Compound 106] | < 10 µM | > 10 µM | < 10 µM | > 10 µM |
| Nc1nc2cc(-c3ccc4ncc(-c5cnn(CCO)c5)nc4c3)ccc2o1 [Compound 108] | < 0.1 µM | > 10 µM | < 0.1 µM | < 10 µM |
| Nc1nc2cc(-c3ccc4ncc(S(=O)(=O)N5CCOCC5)n4c3)ccc2o1 [Compound 109] | > 10 µM | > 10 µM | > 10 µM | > 10 µM |
| CS(=O)(=O)N1CCN(C(=O)c2cnc3ccc(-c4ccc5oc(N)nc5c4)cn23)CC1 [Compound 112] | < 1 µM | < 10 µM | < 0.1 µM | > 10 µM |
| CC(=O)N1CCN(C(=O)c2cnc3ccc(-c4ccc5oc(N)nc5c4)cn23)CC1 [Compound 113] | < 1 µM | > 10 µM | < 0.1 µM | > 10 µM |
| Nc1nc2ccc(-c3ccc4ncc(N5CCOCC5)nc4c3)cc2s1 [Compound 114] | < 1 µM | > 10 µM | < 0.1 µM | > 10 µM |
| CN1CCN(c2cnc3ccc(-c4ccc5nc(N)sc5c4)cc3n2)CC1 [Compound 115] | < 10 µM | > 10 µM | < 0.1 µM | < 0.1 µM |
| Nc1nc2cc(-c3ccc4ncc(N5CCOCC5)nc4c3)ccc2s1 [Compound 116] | < 1 µM | > 10 µM | < 0.1 µM | < 1 µM |
| CNC(=O)CN1CCN(c2cnc3ccc(-c4ccc5oc(N)nc5c4)cc3n2)CC1 [Compound 120] | > 10 µM | < 10 µM | < 0.1 µM | < 1 µM |
| Nc1nc2cc(-c3cn4c(C(=O)N5CCOCC5)cnc4cn3)ccc2o1 [Compound 122] | > 10 µM | > 10 µM | > 10 µM | > 10 µM |
| CN1CCN(C(=O)c2cnc3cnc(-c4ccc5oc(N)nc5c4)cn23)CC1 [Compound 123] | > 10 µM | > 10 µM | < 10 µM | > 10 µM |
| Nc1nc2ccc(-c3ccc4ncc(C(=O)N5CCOCC5)n4c3)cc2o1 [Compound 124] | < 1 µM | > 10 µM | < 1 µM | < 1 µM |
| Nc1nc2ccc(-c3ccc4ncc(C(=O)N5CCOCC5)n4c3)cc2s1 [Compound 125] | < 1 µM | < 10 µM | < 1 µM | > 10 µM |
| Nc1nc2cc(-c3ccc4ncc(C(=O)N5CCOCC5)n4c3)ccc2s1 [Compound 126] | < 1 µM | > 10 µM | < 1 µM | < 10 µM |
| CN1CCN(c2cnc3ccc(-c4ccc5sc(N)nc5c4)cc3n2)CC1 [Compound 127] | < 10 µM | > 10 µM | < 1 µM | < 0.1 µM |
| CN1CCCN(C(=O)c2cnc3ccc(-c4ccc5oc(N)nc5c4)cn23)CC1 [Compound 140] | > 10 µM | > 10 µM | < 1 µM | < 10 µM |
| CCN1CCN(C(=O)c2cnc3ccc(-c4ccc5oc(N)nc5c4)cn23)CC1 [Compound 141] | < 10 µM | > 10 µM | < 1 µM | > 10 µM |
| CN1CCN(C(=O)c2cnc3ccc(-c4ccc5nc(N)sc5c4)cn23)CC1 [Compound 146] | > 10 µM | > 10 µM | < 10 µM | < 10 µM |
| CC(=O)NC1CCN(C(=O)c2cnc3ccc(-c4ccc5oc(N)nc5c4)cn23)CC1 [Compound 147] | < 10 µM | < 10 µM | < 1 µM | < 10 µM |
| Nc1nc2cc(-c3ccc4ncc(C(=O)N5CCN(CCO)CC5)n4c3)ccc2o1 [Compound 148] | < 10 µM | > 10 µM | < 0.1 µM | > 10 µM |
